In patent publication US12714702B2, “Compositions and methods for treating or preventing pulmonary hypertension” (priority 2020, dated 2026):

What was measured:
[1] = system: p62, BMPR2, LC3B-II, p21, p65, phospho-AKT, phospho-p65 in right lung; experiment: SU5416/hypoxia model, western blot of right lung homogenate; assay type: in vivo, rat
Description: FIGS. 18E-18F show western blot analysis of tissue (right lung) lysates for expression of various disease marker proteins including p62, BMPR2, LC3B-II, p21, p65, p53, phosphorylated-p53 and phosphorylated-AKT using corresponding monoclonal antibodies.
The accumulation of p62, a protein degraded by autophagy pathways, is indicative of autophagy inhibition.

[2] = system: 5-HT induced bovine PASMC; experiment: Anti-proliferative efficacy in 5-hydroxytryptamine induced hyper-proliferation; assay type: cell-based; settings: 1.5-5.0 μM, time- and concentration-dependent
Protocol: Data represent mean±SD (n=5) repeated over 3 experiments. *p<0.05.
Human or bovine PASMC were treated with varying concentrations of QA (1.5-, 3.1-, and 6.2-μM). Cellular proliferation was measured at day 1, day 3 and day 5 by following the manufacturer's protocol. Briefly, a reagent mix of nucleic acid stain and background suppressor were added in PBS followed by addition of the mix in treatment wells (100 μL/well). The plates were incubated at 37° C./5% CO2 for one hour followed by evaluation of fluorescence at 485 ex/535 em. Proliferation inhibition was analyzed relative to control wells on each time point. Data was averaged from two trials with n=6 for SMC II and one trial of n=4 for SMC III.
In-vitro studies to measure anti-proliferative activity of QA against pulmonary hypertension were performed using primary human PASMC (FIG. 3), primary bovine PASMC (FIG. 4) and high altitude PASMC (HAPASMC) (FIG. 4). HAPASMC, due to prolonged hypoxia exposure, are known to be hyper-proliferative in regular culture conditions, while hyper-proliferation was induced in PASMC cells by 24 hour serum starvation, or by exposure to 5-hydroxytryptamine (5-HT). […]

[3] = system: Ki67, PCNA, vWF, α-SMA in MCT-induced PAH animal lung tissue; experiment: MCT model, immunofluorescence of lung tissue; assay type: in vivo, rat; settings: MCT rats
Protocol: FIGS. 12A-12B show immunofluorescence imaging for MCT-induced PAH animal lung tissue slides.
Preclinical in-vivo studies for QA were earlier performed at a dose of 10 mg/kg once-a-day in monocrotaline (MCT) induced therapeutic PAH model. Hemodynamic parameters were collected and lung tissues were also collected and were sectioned for visualizing the impact of QA treatment on various PAH biomarkers in-vivo.
OCT compound embedded Tissue sections for control animals, MCT induced PAH animals and QA treated animals were further subjected to immunofluorescent staining to analyze expression levels of essential molecular markers. Briefly, tissue sections were washed twice with 1×PBS followed by blocking for one hour using a blocking buffer (Cell Signaling Technology, Danvers, MA, USA). Followed by blocking, tissue sections were stained with respective primary antibodies overnight; VWF #ab15419, 1:100 (abcam), α-SMA #489385, 1:500 (CST), Ki67 #9129S (CST), 1:250 and PCNA #2586S (CST), 1:100. Following day, tissue sections were washed with 1×PBS twice followed by incubation with Anti-rabbit IgG (H+L), F(ab′)2 Fragment (Alexa Fluor® 488 Conjugate) #4412S 1:250 (CST) and Anti-mouse IgG (H+L), F(ab′)2 Fragment (Alexa Fluor® 594 Conjugate) #8890S, 1:500 (CST) for one hour. Further, sections were washed with 1×PBS twice and the nuclei were stained with DAPI using Vectashield hardset antifade mounting medium with DAPI (Vector Laboratories, Burlingame, CA, USA). Tissues were imaged using Zeiss Axioplan 2 fluorescence microscope (Carl Zeiss AG, Jena, Germany).
Immunofluorescence imaging of the MCT-induced PAH animal lung tissue slides was also performed.

[4] = system: IL-6, Acta2, serpinel, Id3, BMPR2 mRNA; experiment: SU5416/hypoxia model, mRNA expression by real time PCR; assay type: in vivo, rat; settings: SU5416/hypoxia rats
[5] = system: pulmonary arteries of MCT-induced PAH animals; experiment: MCT model, trichrome staining of lung sections and medial wall thickness; assay type: in vivo, rat; settings: MCT rats
Description: At the end of treatment period with QA, animals were sacrificed. Chest was surgically opened to expose rat lungs. Lung tissues were collected, and blinded tissues were sectioned by Reveal Bio (San Diego, CA) at 5 μm thickness. 2 tissue sections for each animal were earmarked for Trichrome staining; and 8 more sections were provided blank for custom staining.
Tissue sections were stained using trichrome staining to visualize pulmonary arteries for all treatment and control groups. Stained lung sections were imaged using Zeiss Axio Scope A1 microscope equipped with Axiocam 506 color camera and Zeiss Zen 2.3 software. Medial wall thickness for similar sized pulmonary arteries was measured using a Motic BA210 microscope and measurements were made using Motic Image plus 2.0 software. Five pulmonary artery walls were analyzed per animal (n=2 to 5)
Additionally, lung tissue sections from the MCT-induced PAH lung tissue were examined using trichrome staining.
Medial wall thickness of pulmonary arteries was measured using the trichrome stained microscopic images.

CCN(CC)CCCC(C)Nc1c2ccc(Cl)cc2nc2ccc(OC)cc12 (stereo not shown) [QA, quinacrine]
autophagy marker LC3B-II ([1]; right lung homogenate): accumulated
autophagy marker p62 ([1]; right lung homogenate): accumulated
accumulation of BMPR2 ([1]; right lung homogenate, in comparison to control animals): > 2 fold
expression of p21 protein ([1]; tissue lysates): significant increase
expression of phospho-AKT ([1]; tissue lysates): decreased
expression of phospho-p65 ([1]; tissue lysates): decreased
p65 ([1]; tissue lysates): significant reduction
proliferation [2]: significantly inhibits proliferation
expression of Ki67 [3]: reduction in expression
expression of PCNA [3]: reduction in expression
expression of vWF ([3]; compared to control): did not show any reduction in expression
expression of α-smooth muscle actin (α-SMA) ([3]; compared to control): did not show any reduction in expression
BMPR2 mRNA expression [4]: no significant changes
Acta2 gene (smooth muscle actin-alpha) expression ([4]; real time PCR): decreased
IL-6 mRNA levels ([4]; real time PCR): decreased
Id3 mRNA level ([4]; real time PCR): did not significantly change
mRNA levels of serpinel ([4]; real time PCR): reduced
medial wall thickness of pulmonary arteries ([5]; compared to sham control animals): back to almost normal
collagen and muscular deposition in pulmonary arterioles ([5]; trichrome staining): significant reduction
